In the SangsterLogP compilation one finds logP data, which are given here for 18 compounds.

Each structure is given as a SMILES string.

The data set in a line: method code SF-AS, from DOI: 10.1080/02772240109358997.
Turning to `CCCCC(CCCC)(C(=O)OC(C)C)S(=O)(=O)c1ccc([N+](=O)[O-])cc1`, the logP amounted to 4.06.
`CC(C)OC(=O)C(=Cc1ccccc1)S(=O)(=O)c1ccc([N+](=O)[O-])cc1` showed a logP of 3.62.
Under `Cc1ccc(S(=O)(=O)C(=Cc2ccccc2)C(=O)OC(C)C)cc1` stands 3.92; under `CCC(CC)(C(=O)OC)S(=O)(=O)c1ccc([N+](=O)[O-])cc1`, 2.24; under `CC(C)COC(=O)C(=Cc1ccccc1)S(=O)(=O)c1ccc([N+](=O)[O-])cc1`, 3.68.
Under `COC(=O)C(C)S(=O)(=O)c1ccc([N+](=O)[O-])cc1` (stereo not drawn) stands 1.06.
Compound `CCOC(=O)CC(C(=O)OC)S(=O)(=O)c1ccc([N+](=O)[O-])cc1` (stereo not drawn) came in with a logP of 1.4.
The same measure for `COC(=O)C(C)(C)S(=O)(=O)c1ccc([N+](=O)[O-])cc1`: 1.38.
Under `CCOC(=O)C(Cc1ccccc1)(Cc1ccccc1)S(=O)(=O)c1ccc([N+](=O)[O-])cc1` stands 3.4.
Under `CCOC(=O)CC(CC(=O)OCC)(C(=O)OC(C)C)S(=O)(=O)c1ccc([N+](=O)[O-])cc1` stands 3.56.
With `C=CCC(C)(C(=O)OCC)S(=O)(=O)c1ccc([N+](=O)[O-])cc1` (stereo not drawn), the log partition coefficient (logP) came to 2.3.
The same measure for `CCOC(=O)C(=Cc1ccccc1)S(=O)(=O)c1ccc([N+](=O)[O-])cc1`: 3.2; for `CCCCC(CCCC)(C(=O)OCC)S(=O)(=O)c1ccc([N+](=O)[O-])cc1`: 3.81.
The same measure for `CC(C)OC(=O)CC(C(=O)OC(C)C)S(=O)(=O)c1ccc([N+](=O)[O-])cc1` (stereo not drawn): 2.18; for `COC(=O)C(=Cc1ccccc1)S(=O)(=O)c1ccc([N+](=O)[O-])cc1`: 2.9.
Under `CCOC(=O)C(C)(c1cccc2ccccc12)S(=O)(=O)c1ccc([N+](=O)[O-])cc1` (stereo not drawn) stands 4.4.
In the case of `CC(C)OC(=O)C(=Cc1ccccc1)S(=O)(=O)c1ccc(Cl)cc1`, the log partition coefficient (logP) turned out to be 4.18.
For the compound `CC(C(=O)OC1CCCCC1)S(=O)(=O)c1ccc([N+](=O)[O-])cc1` (stereo not drawn), the logP is 2.82.

Usually logP stands for the decadic logarithm of the partition coefficient of the neutral form, usually between octanol and water.
